Here are results for seven compounds from patent US10017767B2, “Targets in multiple myeloma and other disorders” (FONDAZIONE CENTRO SAN RAFFAELE, priority 2012, dated 2018).

The subject of series [1] is KMS-20 cells transfected with pLENTI4-YAP1-EGFP. Briefly: Apoptosis by Annexin V-PE/7AAD on GFP-positive YAP1-transfected cells. As to conditions: YAP1 reintroduced; with imatinib 10 μM. The class given is cell-based. On the procedure:
Cellular counting was performed in triplicate for each condition, with trypan blue exclusion. Right panel: Apoptosis by Annexin V-PE/7AAD, gating on GFP-positive cells. The percentage of viable cells (Annexin V-PE-/7AAD-cells) is shown at 48 hours.
p-ENTR-YAP1-EGFP plasmid was kindly provided by Dr. Marius Sudol and subcloned into pLENTI4-V5DEST vector using GATEWAY strategy. p-LENTI4-LACZ vector was used as control. KMS-18, KMS-20, MM.1S, RPMI-8226 and UTMC-2 cells (5,000,000) cells were transiently transfected with p-LENTI4 YAP1, using ‘Cell Line Nucleofector Kit V (Amaxa Biosystems, Köln, Germany), according to the manufacturer's instructions. AMAXA program: MM.1S→T-030; RPMI-8226→C-015; KMS-18, KMS-20 and UTMC-2→X-001. Specifically, 5×10^6 cells were resuspended in 100 μL V solution and 2500 ng of plasmid. Following transfection, MM cells were subjected to mRNA analysis, Western blotting, as well as apoptosis, cell counting, and MTT assays.
In particular, cells were washed twice with room-temperature PBS, resuspended in 100 μL of Annexin binding buffer, and stained with specific antibodies for 20 minutes. After adding other […] of Annexin binding buffer, samples were acquired using FACS Canto II machine from Becton Dickinson, BD, and analyzed with FCS EXPRESS 4 Flow Research Edition software.

The subject of series [2] is U266 cell line. The series is described as follows: MTT viability assay, U266. The class given is cell-based. The settings on record: 48 h. On the procedure:
(§1) Viability of MM cells was evaluated by 3-[4,5-dimethylthiazol-2-yl]-2,5-diphenyltetrazolium bromide (MTT) colorimetric survival assay. MM cells (20,000-50,000) were plated in 100 μL medium. At the various time points (24-96 hours), 10 μL 5 mg/mL MTT were added to plated cells. After 4 hour incubation at 37° C., medium was discarded and 100 μL MTT stop solution (Isopropanonol with […] Hcl) used to dissolve MTT metabolic products. Absorbance was read at 570 nm and background was subtracted at 630 nm, using spectrophotometer SPECTRAMAX M2 machine and Softmax Pro v5 software. Cellular growth was estimated by cell counting in triplicates, excluding dead cells stained by trypan blue.

In series [3] the test system is MM.1S cells. The series is described as follows: MTT viability assay, MM.1S. The series is classed as cell-based, human. The settings on record: MM.1S YAP1-transfected; imatinib 10 μM from day 0. The method, then:
as §1
(In general: Tetrazolium dyes change colour on reduction, which living cells bring about.)

The nature of series [4]: MTT viability assay, KMS-20. The series is classed as cell-based. The settings on record: human, KMS-20 multiple myeloma cells, LACZ-transfected; read-out: 48 hour viability (MTT, normalized to LACZ+DMSO). On the procedure: as §1
Series [5] deals with KMS-20 cells. Briefly: MTT viability assay, KMS-20. The settings on record: KMS-20 YAP1-transfected; imatinib 10 μM from day 0. The series is classed as cell-based. On the procedure:
as §1

Series [6] has as its system YAP1, p73. The series is described as follows: Western blot of YAP1, p73 and p73 targets in MM.1S and U266. The class given is cell-based. On the procedure: (§2) MM cells were harvested and lysed using lysis buffer: 50 mMTris-HCl (pH 7.4), 150 mM NaCl, 1% NP-40, 5 mM EDTA, 5 mM NaF, 2 mM Na3VO4, 1 mM PMSF, 5 μg/mL leupeptine, and 5 μg/mL aprotinin. Nuclear extracts were prepared using Nuclear Extraction Kit (Panomics). Cell lysates were subjected to sodium dodecyl sulfate-polyacrylamide gel electrophoresis SDS-PAGE, transferred to nitrocellulose membranes, and immunoblotted with different antibodies: ATM, phospho-ATM (Ser1981), ATR, phospho-ATR (Ser428), CHK2, phospho-CHK2 (Thr68), CHK1, phospho-CHK1 (Ser296), p21, p53, phospho-p53 (ser127), STK4, LATS1, phospho-LATS1 (Ser909), phospho-ABL1 (Thr735), cleaved caspase 3, cleaved PARP, histone H3, SAPK/JNK, phospho-SAPK/JNK (Thr183/Tyr185), GM130, GAPDH, and α-tubulin (Cell Signaling); STK4, Nuclear Matrix Protein p84 (Abeam), p73 (BD), phospho-H2A.X (Ser139) (Millipore); as well as ABL1, BAX, Puma, Noxa, actin and nucleolin (Santa Cruz Biotechnology).

The test system of series [7] is MM.1S MM cells. Briefly: MM.1S xenograft mouse model with inducible STK4 knockdown. The series is classed as in vivo, Fox Chase SCID mice. As to conditions: subcutaneous, 6 weeks; scrambled shRNA tumors 1965 mm^3. The method, then: A genetic approach conditionally knocking down STK4 in MM.1S cells was performed. In this study, MM.1S MM cells were infected with either inducible scrambled shRNAs, or inducible pLKO.1-TET shRNA #4 and pTRIPZ 63 directed against STK4 and then injected subcutaneously into three sites (left and right flank and interscapular region) in a group of 12 Fox Chase SCID mice.

In series [8] the test system is YAP1. Briefly: YAP1 knockdown by lentiviral shRNA. The series is classed as cell-based. The method, then: Lentiviral short hairpin RNAs (shRNA) were used to knockdown YAP1 and STK4 expression in MM cells. Scrambled control pLKO.1 shRNA vectors and specific YAP1 and STK4 shRNA constructs were kindly provided by Dr. William Hahn (Dana-Farber Cancer Institute).
The efficacy of each shRNA in silencing gene expression was tested in HCT-116 and HeLa cell lines using Mirus Bio Trans-IT LT1 transfection reagent. To obtain stable silenced clones with YAP1/STK4 shRNA or pLKO.1 control plasmid, the following protocol was used. 293T cells were plated (300,000 cells on 6-cm plates) in DMEM/10% FBS/0.1% P/S. After 24 hours when cells were 60-70% confluent, 1000 ng of vector of interest together with 100 ng p-VSV-G and 900 ng delta 8.94 (both packaging vectors purchased from Addgene) were co-transfected with MIRUS BIO TransIT-LT1 diluted in OPTI-MEM (GIBCO). After 12 hours, 293T media was changed with DMEM/[…] to promote viral production. 24 and 48 hours post transfection, supernatant containing lentiviral particles was harvested, filtered with 0.45 μM diameter filter, and used to infect 2.5×10^6 MM cells. […] After the second cycle of infection, cells were put under selection with a suitable concentration of puromycin. mRNA and protein expression were evaluated 48 and 72 hrs after selection. […]

For series [9], the system named is ABL1. Briefly: ABL1 cytoplasmic/nuclear localization by subcellular fractionation and Western blot in MM cell lines. The settings on record: 2-10 μM; 1, 2, 6 and 24 hs; MM.1S, H929, UTMC-2, JJN-3, KMS-20. The series is classed as cell-based. The method, then:
as §2

In series [10] the test system is ATM. The series is described as follows: CHK2 (Thr68) phosphorylation immunoblot in MM cells. The series is classed as cell-based. Background: Immunoblotting shows a protein as a band on a membrane.
Series [11] concerns U266 MM cell line. The series is described as follows: Apoptosis by Annexin V-FITC/PI staining, U266. The series is classed as cell-based. The method, then:
(§3) In particular, cells were washed twice with room-temperature PBS, resuspended in 100 μL of Annexin binding buffer, and stained with specific antibodies for 20 minutes.

For series [12], the system named is MM.1S cells. Briefly: Apoptosis by Annexin V-FITC/PI staining, MM.1S. The class given is cell-based, human. On the procedure:
as §3

Series [13] is described as follows: MTT viability assay, U266. The series is classed as cell-based. The settings on record: human, U266 multiple myeloma cells. The method, then: as §1
The nature of series [14]: MTT viability assay, MM.1S. The class given is cell-based, human. The settings on record: human, MM.1S multiple myeloma cells; MM.1S; doxorubicin 40 nM, 48 h; read-out: cell viability by MTT assay. On the procedure: as §1
A short description of series [15]: MTT assay, UTMC-2. The settings on record: human, UTMC-2 multiple myeloma cells; UTMC-2; doxorubicin 40 nM, 48 h; read-out: cell viability by MTT assay. The class given is cell-based, human. The method, then:
as §1

Series [16] concerns UTMC-2 cells. The series is described as follows: MTT assay, UTMC-2. The class given is cell-based, human. As to conditions: doxorubicin 40 nM, 48 hours. The method, then: as §1
For series [17], the system named is U266 MM cell line. The series is described as follows: DNA damage markers and ABL1 localization in U266. The series is classed as cell-based. The settings on record: doxorubicin 40 nM. The method, then: MM cells were harvested and lysed using lysis buffer: 50 mMTris-HCl (pH 7.4), 150 mM NaCl, 1% NP-40, 5 mM EDTA, 5 mM NaF, 2 mM Na3VO4, 1 mM PMSF, 5 μg/mL leupeptine, and 5 μg/mL aprotinin. Nuclear extracts were prepared using Nuclear Extraction Kit (Panomics). […]
15,000 cells from MM cell lines, PBMCs or MM patient samples were cytospun for 5 minutes at 350-500 rpm, fixed in 4% paraformaldehyde (PFA) for 15 minutes, washed three times with PBS, and incubated with 0.1M glycin for 10 minutes to quench PFA autofluorescence. […] The slides were then mounted with ProLong Gold Antifade Reagent (Invitrogen), and images were taken using a Zeiss microscope (Carl Zeiss) equipped with Hamamatsu ORCA-ER camera (Hamamatsu Photonics) and analyzed with ImageJ software. […]

Series [18] deals with MM.1S and UTMC-2. The series is described as follows: DNA damage markers and nuclear ABL1 in MM.1S and UTMC-2. The series is classed as cell-based, human. The settings on record: doxorubicin 40 nM. On the procedure: as §2
The subject of series [19] is UTMC-2 cells. As to conditions: doxorubicin 40 nM, 48 h, before treatment 19.1%.

On to `Cc1ccc(NC(=O)c2ccc(CN3CCN(C)CC3)cc2)cc1Nc1nccc(-c2cccnc2)n1` [imatinib], for which the “apoptotic cells after reintroduction of YAP1” value in series [1] amounted to 9.1%. Further, in [2] (Homo sapiens, U-266, 48 h, doxorubicin 40 nM with imatinib 10 μM, doxorubicin alone 52.8%), the viability at 10 µM worked out at 78.5%. For the same compound, the “48 hour viability (MTT, normalized to LACZ+DMSO)” value in series [3] is recorded as 86.1%±20.6; in series [5] it was 96.7%+8.9. In [4], the viability at 48 h, 10 µM is 103%. For the same compound, in series [6] (doxorubicin 40 nM with imatinib 10 μM), the “YAP1, p73 and p73-target expression triggered by DNA-damaging agents” value is “stifled the increase in YAP1, p73 and p73-target expression”.
For the compound “pLKO.1-TET shRNA #4: inducible shRNA directed against STK4; clone #4 target sequence GCCAAGCGGAATACAGTGATA (the letters are possibly those of the target site)”, in series [7], the xenograft tumor growth result is on record as “no growth was evident”.
“shRNA #1: lentiviral shRNA targeting YAP1, CCCAGTTAAATGTTCACCAAT”: the “knockdown of YAP1” value in series [8] was “robust knockdown of YAP1”.
For the compound `O=c1cc(-c2cccc3c2Sc2ccccc2S3)oc(N2CCOCC2)c1` [Ku55933], the “cytoplasmic and nuclear ABL1 levels” value in series [9] is “increase in the levels of cytoplasmic ABL1, and a concomitant strong reduction of nuclear ABL1”. Moreover, the “CHK2 phosphorylation at Thr68” value in series [10] is reported as “reduction in CHK2 phosphorylation at Thr68”.
Take `COc1cccc2c1C(=O)c1c(O)c3c(c(O)c1C2=O)C[C@@](O)(C(=O)CO)C[C@@H]3O[C@H]1C[C@H](N)[C@H](O)[C@H](C)O1` [doxorubicin]: the “apoptotic cells (Annexin V and PI staining)” value in [11] (doxorubicin 40 nM, 48 h, before treatment 13.1%) came out at 40.1%. Further, the “apoptosis (Annexin V-FITC/PI)” value was found to be 55.3% in series [12] (doxorubicin 40 nM, 48 h, before treatment 12.4%) and 57.8% in series [19]. In addition, the viability at 48 h, 40 nM in [13] (doxorubicin 40 nM, 48 h, read-out: viable cells (MTT assay)) was 50%; in [14], 33.3%; in series [15], 66.5%. In addition, the “viable cells (MTT assay)” value in series [2] (doxorubicin 40 nM) is listed as 52.8%. Moreover, the entries for the “percentage of apoptotic cells by MTT assay” value in [16] (UTMC-2 control cells) and in series [16] (UTMC-2 stably YAP1-silenced) were 37.4% and 15.8%, respectively. In addition, the ABL1 localization result in series [17] was “ABL1 moved to the nuclear compartment”. For the same compound, the “γ-H2A.X foci, pATM and pJNK phosphorylation” value in series [17] is “induced multiple γ-H2A.X foci and strong pATM and pJNK phosphorylation”. In addition, the “γ-H2AX, pATM, pJNK and nuclear ABL1” value in series [18] was “increase in γ-H2AX, pATM, and pJNK was evident, along with a major increase in nuclear ABL1”. Also, the “YAP1 and p73 protein levels” value in [6] (doxorubicin 40 nM) is reported as “induced YAP1, as well as p73”.
Turning to `CCOc1cc2ncc(C#N)c(Nc3ccc(OCc4ccccn4)c(Cl)c3)c2cc1NC(=O)/C=C/CN(C)C` [HKI-272], in [11] (10 μM, untreated 10%), the “apoptosis (Annexin V-PI)” value came out at 43%. Further, the “apoptosis (Annexin V-FITC/PI)” value in series [12] (10 μM, untreated 11%) is 67%. The viability at 24 h, 10 µM in series [13] (10 μM, 24 h, read-out: 24 hour viability (MTT, normalized to DMSO)) came out at 98.2%. Also, in series [13] (10 μM, 48 h, read-out: 48 hour viability (MTT, normalized to DMSO)), the viability at 48 h, 10 µM was determined as 87.8%. The viability at 72 h, 10 µM in [13] (10 μM, 72 h, read-out: 72 hour viability (MTT, normalized to DMSO)) was 56.9%. Besides, the viability at 96 h, 10 µM in [13] (10 μM, 96 h, read-out: 96 hour viability (MTT, normalized to DMSO)) amounted to 17.9%.
Consider “shRNA #3: lentiviral shRNA targeting YAP1, CAGGTGATACTATCAACCAAA (the letters are possibly those of the target site)”, for which the “knockdown of YAP1” value in [8] is listed as “robust knockdown of YAP1”.
